Consider 3 compounds from patent publication US20170035847A1, “COMPOSITIONS AND METHODS FOR TREATING INFLAMMATION-ASSOCIATED DISORDERS OF THE GASTROINTESTINAL TRACT” (TherapyX, Inc., priority 2015, published 2017).

A short description of one data set: in vivo. The note with it: rat, iv. How it is done:
In addition to the studies discussed above a bioavailability and pharmacokinetic study of TGFβ and ATRA was conducted following a single oral administration of PIN®-encapsulated TGFβ and ATRA in male rats, when compared to intravenous administration.

The subject of data set [1] is DSS-induced colitis in C57Black6 mice. As to the kind of experiment: Dextran sodium sulphate-induced colitis. It is filed as in vivo, mouse. An excerpt: Animals: Mice 6-8-weeks old (C57Black6 mice [males: n=6; females: n=6; 12 per group]) were purchased from Harlan Nossan, San Pietro al Natisone, Udine, Italy, and housed in a vivarium under pathogen-free conditions at the Department of Biomedical Sciences in the School of Medicine at the University of Catania [Catania, Italy]. The mice were kept under standard laboratory conditions with free access to food and water. They were allowed to adapt for 1 week before starting the study. The care and use of laboratory animals was in accordance with a University of Catania IACUC-approved animal use protocol.
Colitis was induced with 3% dextran sodium sulphate [50 kDa; Sigma-Aldrich] in drinking water for 4 days. The first treatment was given 24 h before induction of colitis [Day −1] and continued every other day for 6 days.
Disease score, SAA levels and histological analysis were performed as above.
To more broadly test the ability of oral TGFβ/ATRA-loaded microspheres to ameliorate IBD, a second model, the DSS-induced colitis model, was employed. Acute colitis was induced in C57Black6 mice [equal numbers of males and females, […]] with 3% DSS[50 kDa] in drinking water for 4 days. […] Mice were monitored daily for overall disease score and weight loss. At the end of 7 days, animals were sacrificed, sera taken and colons harvested, weighed, and measured on Day 7 [24 h after final treatment]. […] SAA levels, colon weight-to-length ratios, and histology scores determined. […] Mice were sacrificed 7 days after first treatment and levels of SAA determined [FIG. 10C]. […] The colons of sacrificed mice were also analyzed for colon weight-to-length ratio [FIG. 10D]. […] Next, ascending, transverse, and descending colon from naïve C57Black6 [no disease], untreated, TGFβ/ATRA-treated, and control [fed blank particles] mice were fixed in 10% formalin, embedded in paraffin, sectioned [5 μm] and stained with H & E. Five randomly-selected sections from each mouse were scored [Table 2] for disease severity. […]

In “in vivo” (male, 1.6 mg/kg), `CC1=C(/C=C/C(C)=C/C=C/C(C)=C/C(=O)O)C(C)(C)CCC1` [ATRA, all-trans retinoic acid] showed an AUC of 3.5 µg·h/mL and a half-life of 34 min.
In the case of `O=C(O)c1cc(/N=N/c2ccc(S(=O)(=O)Nc3ccccn3)cc2)ccc1O` [sulphasalazine], in data set [1] (Day 7, TGFβ/ATRA 10 and 20 μg, sulphasalazine 50 mg/kg daily), the “SAA levels, difference to no treatment” value was “significant”. For the same compound, in data set [1] (Day 7, control groups almost 40 mg/cm, p<0.01), the colon weight-to-length ratio was 35 mg/cm. In data set [1] (TGFβ/ATRA 10 and 20 μg every other day, sulphasalazine 50 mg/kg daily oral for 7 days), the weight loss result was “neither sulphasalazine nor TGFβ/ATRA treatment was able to reduce weight loss”.
“TGFβ: soluble unencapsulated protein, transforming growth factor β; human recombinant TGFβ (Peprotech)”: in the data set “in vivo” (0.04 mg/kg), the “Area under the curve [AUC]” value was 0.01 µg·h/mL and the t1/2 was 5 min.
